Literature values in patent US20110060040A1, “USES OF ACYLOXYALKYL CARBAMATE PRODRUGS OF TRANEXAMIC ACID” (XenoPort, Inc., priority 2009, published 2011).

Experiments:
[1] = human patients, prodrug given orally
[2] = cardiopulmonary bypass surgery, prophylactic administration
[3] = patients undergoing total knee arthroplasty

SMILES	oral bioavailability of tranexamic acid [1]	excretion (in vivo)	fraction of administered tranexamic acid metabolized (in vivo)	volume of distribution (in vivo) [L]	oral bioavailability (oral)	reduction of post-operative bleeding [2]	reduction of total blood loss [3]
CCOC(=O)OC(C)OC(=O)[C@H]1CC[C@H](CN)CC1 (relative stereo) [Kabi 2161, 1-(ethoxycarbonyl)oxyethyl trans-4-(aminomethyl)-cyclohexanecarboxylate]	markedly improved	–	–	–	–	–	–
NC[C@H]1CC[C@H](C(=O)O)CC1 [tranexamic acid, trans-4-(aminomethyl)-cyclohexanecarboxylic acid]	–	most is excreted unchanged by the kidney	Only a small fraction	9 to 12	ca. 30%	30-40%	up to 50%
